Experimental data published in patent US7098013B2, “Polypeptide having α-isomaltosyl-transferase activity” (Kabushiki Kaisha Hayashibara Seibutsu Kagaku Kenkyujo, priority 2000, dated 2006).

Columns and labels:
[1] = tested on: α-isomaltosyl-transferring enzyme; test: Action of the purified C11 enzyme on saccharide substrates (saccharide composition by HPLC); assay type: biochemical, Bacillus globisporus C11; conditions: for yield of cyclotetrasaccharide in dry basis from the substrate: summary of Table 3
Procedure: An aqueous solution containing 10 mM of glucose, 6-O-α-glucosylglucose (isomaltose), 6^2-O-α-glucosylmaltose (panose), 6^3-O-α-glucosylmaltotriose (isomaltosylmaltose), 6^4-O-α-glucosylmaltotetraose, or 6^5-O-α-glucosylmaltopentaose was prepared as substrate solution. To each of the above substrate solution was added two units/mM-substrate of the purified α-isomaltosyl-transferring enzyme specimen obtained in Experiment 1-2 and incubated at 30° C. and at pH 6.0 for 12 hours. After deionizing by conventional method, the resulting reaction solutions were measured for saccharide composition on HPLC using “MCI GEL CK04SS”, a column commercialized by Mitsubishi Chemical Industries, Ltd., Tokyo, Japan, at a column temperature of 80° C. and a flow rate of 0.4 ml/min of water, and using a detector “RI-8012”, a differential refractometer commercialized by Tosho Corporation, Tokyo, Japan.

[2] = tested on: α-isomaltosyl-transferring enzyme; test: Action of the purified N75 enzyme on saccharide substrates (saccharide composition by HPLC); assay type: biochemical, Bacillus globisporus N75; conditions: for yield of cyclotetrasaccharide in dry basis from the substrate: summary of Table 6
Procedure: An aqueous solution containing 10 mM of glucose, 6-O-α-glucosylglucose (isomaltose), 6^2-O-α-glucosylmaltose (panose), 6^3-O-α-glucosylmaltotriose (isomaltosylmaltose), 6^4-O-αglucosylmaltotetraose, or 6^5-O-α-glucosylmaltopentaose was prepared as substrate solution. To each of the above substrate solutions was added two units/mM-substrate of the purified α-isomaltosyl-transferring enzyme specimen obtained in Experiment 3-2 and incubated at 30° C. and at pH 6.0 for 12 hours. After deionizing by conventional method, the resulting reaction solutions were measured for saccharide composition on HPLC, disclosed in Experiment 2-1.

Bacillus globisporus N75 = test: Utilization of carbon source and acid formation, strain N75; assay type: cell-based; set-up: key: The symbol “+” means yes or positive; conditions: carbon source
Procedure: (§1) Physiological Properties> • (1) VP-test: Negative • (2) Indole formation: Negative • (3) Gas formation from nitric acid: Positive • (4) Hydrolysis of starch: Positive • (5) Formation of pigment: Forming no soluble pigment • (6) Urease: Positive • (7) Oxidase: Positive • (8) Catalase: Positive • (9) Growth conditions: Growing at a pH of 5.5–9.0 and a temperature of 10–35° C. • (10) Oxygen requirement: Aerobic • (11) Utilization of carbon source and acid formation

Bacillus globisporus C11 = test: Utilization of carbon source and acid formation, strain C11; assay type: cell-based; set-up: key: The symbol “+” means yes or positive; conditions: carbon source
Procedure: as §1

[3] = Optimum temperature of the enzyme activity; assay type: biochemical; conditions: incubated for 30 min, pH 6.0
Procedure: The activity of α-isomaltosyl-transferring enzyme was measured by the following assay: A substrate solution was prepared by dissolving panose in 100 mM acetate buffer (pH 6.0) to give a concentration of 2% (w/v). A reaction mixture was prepared by mixing 0.5 ml of the substrate solution and 0.5 ml of an enzyme solution, and incubated at 35° C. for 30 min. After stopping the reaction by boiling for 10 min, the amount of glucose formed in the reaction mixture was determined by the glucose oxidase-peroxidase method. One unit of α-isomaltosyl-transferring activity was defined as the amount of the enzyme that forms one μmole of glucose per minute under the above conditions.
A purified specimen of polypeptide having α-isomaltosyl-transferring activity, obtained by the method in Experiment 3-2, was acted on the substrate in 20 mM acetate buffer (pH6.0) at various temperatures for 30 min, according to the assay method of α-isomaltosyl-transferring enzyme disclosed in Experiment 1-1.

[4] = Thermal stability of the polypeptide; assay type: physicochemical; conditions: 20 mM acetate buffer (pH 6.0), 60 min
Procedure: A purified specimen of polypeptide having α-isomaltosyl-transferring activity, obtained by the method in Experiment 3-2, was incubated in 20 mM acetate buffer (pH6.0) at various temperatures for 60 min according to the assay method of α-isomaltosyl-transferring enzyme disclosed in Experiment 1-1.

[5] = C11 enzyme 2 units/mM-substrate, 10 mM substrate, 30° C., pH 6.0, 12 hours
[6] = N75 enzyme 2 units/mM-substrate, 10 mM substrate, 30° C., pH 6.0, 12 hours

Molecule | Content of the substrate itself (remaining) in the reaction mixture [1, 5] | Content of the substrate itself (remaining) in the reaction mixture [2, 6] | Acid formation (Bacillus globisporus N75) | Utilization (Bacillus globisporus N75) | Acid formation (Bacillus globisporus C11) | Utilization (Bacillus globisporus C11) | Content of Cyclotetrasaccharide in the reaction mixture [1, 5] | Content of Isomaltose in the reaction mixture [1, 5] | Content of others in the reaction mixture [1, 5] | yield of cyclotetrasaccharide in dry basis from the substrate ([1]; C11 enzyme) | Content of Cyclotetrasaccharide in the reaction mixture [2, 6] | Content of Isomaltose in the reaction mixture [2, 6] | Content of others in the reaction mixture [2, 6] | yield of cyclotetrasaccharide in dry basis from the substrate ([2]; N75 enzyme) | other results
O=C[C@H](O)[C@@H](O)[C@H](O)[C@H](O)CO[C@H]1O[C@H](CO)[C@@H](O)[C@H](O)[C@H]1O [6-O-α-Glucosylglucose, 6-O-α-glucosylglucose] | 100% | 100% |  |  |  |  |  |  |  |  |  |  |  |  | product formation from the substrate ([1]; C11 enzyme): No product was detected; product formation from the substrate ([2]; N75 enzyme): No product was detected
OC[C@H]1O[C@@](CO)(O[C@H]2O[C@H](CO)[C@@H](O)[C@H](O)[C@H]2O)[C@@H](O)[C@@H]1O [Sucrose] |  |  | + | + | + | + |  |  |  |  |  |  |  |  | 
OC[C@H]1O[C@H](OC[C@H]2O[C@H](O[C@H]3[C@H](O)[C@@H](O)[C@@H](O[C@H]4[C@H](O)[C@@H](O)[C@@H](O[C@H]5[C@H](O)[C@@H](O)C(O)O[C@@H]5CO)O[C@@H]4CO)O[C@@H]3CO)[C@H](O)[C@@H](O)[C@@H]2O)[C@H](O)[C@@H](O)[C@@H]1O (stereo partly drawn) [6^4-O-α-Glucosylmaltotetraose, 6^4-O-α-glucosylmaltotetraose] | 3.4% | 3.2% |  |  |  |  | 25.6% | 1.9% | 8.4% | 25.6% | 25.8% | 1.5% | 8.6% | 25.8% | Content of Maltotriose in the reaction mixture [1, 5]: 60.7%; Content of Maltotriose in the reaction mixture [2, 6]: 60.9%
OCC(O)CO [Glycerol] |  |  | + | + | + | + |  |  |  |  |  |  |  |  | 
OC[C@H]1O[C@H](OC[C@H]2O[C@H](O[C@H]3[C@H](O)[C@@H](O)C(O)O[C@@H]3CO)[C@H](O)[C@@H](O)[C@@H]2O)[C@H](O)[C@@H](O)[C@@H]1O (stereo partly drawn) [6^2-O-α-Glucosylmaltose, 6^2-O-α-glucosylmaltose] | 4.6% | 4.4% |  |  |  |  | 43.5% | 2.1% | 11.0% | 43.5% | 43.2% | 2.0% | 9.7% | 43.2% | Content of Glucose in the reaction mixture [1, 5]: 32.2%; Content of Isomaltosylpanose in the reaction mixture [1, 5]: 4.8%; Content of Isomaltosypanoside in the reaction mixture [1, 5]: 1.8%; Content of Glucose in the reaction mixture [2, 6]: 31.8%; Content of Isomaltosylpanose in the reaction mixture [2, 6]: 6.5%; Content of Isomaltosypanoside in the reaction mixture [2, 6]: 2.4%
OC[C@H]1O[C@@H](O[C@H]2[C@H](O)[C@@H](O)C(O)O[C@@H]2CO)[C@H](O)[C@@H](O)[C@H]1O (stereo partly shown) [Lactose] |  |  | + | + | + | + |  |  |  |  |  |  |  |  | 
OC[C@H]1O[C@H](OC[C@H]2O[C@H](O[C@H]3[C@H](O)[C@@H](O)[C@@H](O[C@H]4[C@H](O)[C@@H](O)C(O)O[C@@H]4CO)O[C@@H]3CO)[C@H](O)[C@@H](O)[C@@H]2O)[C@H](O)[C@@H](O)[C@@H]1O (stereo partly drawn) [6^3-O-α-Glucosylmaltotriose, 6^3-O-α-glucosylmaltotriose] | 4.2% | 4.5% |  |  |  |  | 30.8% | 2.0% | 12.4% | 30.8% | 30.9% | 1.9% | 12.4% | 30.9% | Content of Maltose in the reaction mixture [1, 5]: 50.6%; Content of Maltose in the reaction mixture [2, 6]: 50.3%
OC[C@H]1O[C@H](OC[C@H]2O[C@H](O[C@H]3[C@H](O)[C@@H](O)[C@@H](O[C@H]4[C@H](O)[C@@H](O)[C@@H](O[C@H]5[C@H](O)[C@@H](O)[C@@H](O[C@H]6[C@H](O)[C@@H](O)C(O)O[C@@H]6CO)O[C@@H]5CO)O[C@@H]4CO)O[C@@H]3CO)[C@H](O)[C@@H](O)[C@@H]2O)[C@H](O)[C@@H](O)[C@@H]1O (stereo partly drawn) [6^5-O-α-Glucosylmaltopentaose, 6^5-O-α-glucosylmaltopentaose] | 4.3% | 4.2% |  |  |  |  | 18.2% | 1.6% | 9.4% | 18.2% | 18.7% | 1.4% | 9.1% | 18.7% | Content of Maltotetraose in the reaction mixture [1, 5]: 66.5%; Content of Maltotetraose in the reaction mixture [2, 6]: 66.6%
polypeptide having α-isomaltosyl-transferring enzyme activity from Bacillus globisporus C11: purified α-isomaltosyl-transferring enzyme from Bacillus globisporus C11 (FERM BP-7144), contains the … (protein, listed as Bacillus globisporus) IDGVYHAPYGIDDLYEIQATERSPRDPVAGDTVYIKITTWPIESGQTAWVTWTKNGVNQAAVGAAFKYNSGNNTYWEANLGTFAKGDVISYTVHGNKDGANEKVIGPFTFTVTGWESVSSISSITDNTNRVVLNAVPNTGTLKPKINLSFTADDVLRVQVSPTGTGTLSSGLSNYTVSDTASTTWLTTSKLKVKVDKNPFKLSVYKPDGTTLIARQYDSTTNRNIAWLTNGSTIIDKVEDHFYSPASEEFFGFGEHYNNFRKRGNDVDTYVFNQYKNQNDRTYMAIPFMLNSSGYGIFVNSTYYSKFRLATERTDMFSFTADTGGSAASMLDYYFIYGNDLKNVVSNYANITGKPTALPKWAFGLWMSANEWDRQTKVNTAINNANSNNIPATAVVLEQWSDENTFYIFNDATYTPKTGSAAHAYTDFTFPTSGRWTDPKAMADNVHNNGMKLVLWQVPIQKWTSTPYTQKDNDEAYMTAQNYAVGNGSGGQYRIPSGQWFENSLLLDFTNTAAKNWWMSKRAYLFDGVGIDGFKTDGGEMVWGRSNTFSNGKKGNEMRNQYPNEYVKAYNEYARSKKADAVSFSRSGTQGAQANQIFWSGDQESTFGAFQQAVNAGLTASMSGVPYWSWDMAGFTGTYPTAELYKRATEMAAFAPVMQFHSESNGSSGINEERSPWNAQARTGDNTIISHFAKYTNTRMNLLPYIYSEAKMASDTGVPMMRAMALEYPKDTNTYGLTQQYMFGGNLLIAPVMNQGETNKSIYLPQGDWIDFWFGAQRPGGRTISYTAGIDDLPVFVKFGSILPMNLNAQYQVGGTIGNSLTSYTNLAFRIYPLGTTTYDWNDDIGGSVKTITSTEQYGLNKETVTVPAINSTKTLQVFTTKPSSVTVGGSVMTEYSTLTALTGASTGWYYDTVQKFTYVKLGSSASAQSVVLNGVNKVEYEAEFGVQSGVSTNTNHAGYTGTGFVDGFETLGDNVAFDVSVKAAGTYTMKVRYSSGAGNGSRAIYVNNTKVTDLALPQTTSWDTWGTATFSVSLSTGLNTVKVSYDGTSSLGINFDNIAIVEQ |  |  |  |  |  |  |  |  |  |  |  |  |  |  | optimum temperature [3]: about 50 °C; thermal stability [4]: up to 40 °C
